Test results reported in patent publication US20240262826A1, “WILD TYPE KIT INHIBITORS” (Blueprint Medicines Corporation, priority 2022, published 2024).

Biological target: wild type c-kit (Homo sapiens (Human), UniProt P10721)
Experiment: PathScan phospho c-kit (Tyr719) sandwich ELISA in SCF-stimulated M-07e cells (pKIT assay)
Type: cell-based
Conditions: ELISA assay (values not marked *)
Method in brief: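 Serum- and GM-CSF-starved M-07e cells (4 h) pretreated 60 min at 37 °C with an 8-point compound series in duplicate (0.25% DMSO), then stimulated with human SCF (500 ng/mL stock) 10 min at room temperature. Lysate c-kit Tyr719 phosphorylation quantified by sandwich ELISA with TMB read-out; IC50 from 4-parameter logistic fit.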

Chain of wild type c-kit (P10721 26-976): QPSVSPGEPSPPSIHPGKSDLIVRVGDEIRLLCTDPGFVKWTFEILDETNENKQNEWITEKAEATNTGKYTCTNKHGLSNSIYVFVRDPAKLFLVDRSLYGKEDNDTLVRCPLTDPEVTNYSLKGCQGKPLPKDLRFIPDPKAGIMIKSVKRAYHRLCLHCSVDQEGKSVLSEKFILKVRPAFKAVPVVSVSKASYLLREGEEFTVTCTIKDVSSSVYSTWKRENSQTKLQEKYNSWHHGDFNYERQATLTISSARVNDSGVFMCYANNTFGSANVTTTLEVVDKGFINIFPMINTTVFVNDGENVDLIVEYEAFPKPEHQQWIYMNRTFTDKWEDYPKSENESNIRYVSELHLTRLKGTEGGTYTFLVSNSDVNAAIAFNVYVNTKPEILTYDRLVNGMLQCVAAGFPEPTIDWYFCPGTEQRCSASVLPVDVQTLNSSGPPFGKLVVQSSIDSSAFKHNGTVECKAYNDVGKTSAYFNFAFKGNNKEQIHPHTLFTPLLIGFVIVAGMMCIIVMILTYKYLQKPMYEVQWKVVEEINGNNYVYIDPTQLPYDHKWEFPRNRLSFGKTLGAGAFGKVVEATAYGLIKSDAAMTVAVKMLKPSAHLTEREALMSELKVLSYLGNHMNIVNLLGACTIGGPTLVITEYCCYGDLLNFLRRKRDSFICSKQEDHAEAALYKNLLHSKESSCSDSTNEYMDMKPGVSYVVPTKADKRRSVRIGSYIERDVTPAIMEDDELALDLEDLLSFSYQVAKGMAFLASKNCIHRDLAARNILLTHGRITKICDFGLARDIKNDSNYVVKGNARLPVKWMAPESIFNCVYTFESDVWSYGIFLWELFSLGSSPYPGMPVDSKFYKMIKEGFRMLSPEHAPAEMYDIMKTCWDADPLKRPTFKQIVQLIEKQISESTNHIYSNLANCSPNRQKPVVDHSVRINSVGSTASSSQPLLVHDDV

Compound | IC50 [nM]
[2H]C([2H])([2H])N1CCN(c2ccn3ncc(C(=O)Nc4cc(-n5ncc(C6CN(C(=O)OC)C6)n5)ccc4C)c3c2)CC1 [Example 82, methyl 3-(2-(4-methyl-3-(5-(4-(methyl-d3)piperazin-1-yl)pyrazolo[1,5-a]pyridine-3-carboxamido)phenyl)-2H-1,2,3-triazol-4-yl)azetidine-1-carboxylate] | 23.4
O=C(Nc1cc(-c2nnn(C3CN(CC(F)(F)F)C3)n2)ccc1Cl)c1cnn2ccccc12 [Example 195, N-(2-chloro-5-(2-(1-(2,2,2-trifluoroethyl)azetidin-3-yl)-2H-tetrazol-5-yl)phenyl)pyrazolo[1,5-a]pyridine-3-carboxamide] | 8.7
Cc1ccc(-c2nnn(CC3CC4(CC4)CO3)n2)cc1NC(=O)c1cnn2ccccc12 (centres unmarked) [Example 10, N-(5-(2-((5-oxaspiro[2.4]heptan-6-yl)methyl)-2H-tetrazol-5-yl)-2-methylphenyl)pyrazolo[1,5-a]pyridine-3-carboxamide] | 3.8
COC(=O)N1CC(n2nnc(-c3ccc(C)c(NC(=O)c4cnn5ccc(OCCO)cc45)c3)n2)C1 [Example 199, methyl 3-(5-(3-(5-(2-hydroxyethoxy)pyrazolo[1,5-a]pyridine-3-carboxamido)-4-methylphenyl)-2H-tetrazol-2-yl)azetidine-1-carboxylate] | 29.6
COCCNc1ccn2ncc(C(=O)Nc3cc(-c4nnn(C5CC6(CCC6)C5)n4)ccc3C)c2c1 [Example 150, 5-((2-methoxyethyl)amino)-N-(2-methyl-5-(2-(spiro[3.3]heptan-2-yl)-2H-tetrazol-5-yl)phenyl)pyrazolo[1,5-a]pyridine-3-carboxamide] | 3.4
COCCNc1cc2c(C(=O)Nc3cc(-c4nnn(C5CN(C(=O)OC)C5)n4)ccc3C)cnn2cc1C [Example 144, methyl 3-(5-(3-(5-((2-methoxyethyl)amino)-6-methylpyrazolo[1,5-a]pyridine-3-carboxamido)-4-methylphenyl)-2H-tetrazol-2-yl)azetidine-1-carboxylate] | 23.4
Cc1ccc(-c2nnn(C3CN(S(=O)(=O)C(C)C)C3)n2)cc1NC(=O)c1cnn2ccccc12 [Example 177, N-(5-(2-(1-(isopropylsulfonyl)azetidin-3-yl)-2H-tetrazol-5-yl)-2-methylphenyl)pyrazolo[1,5-a]pyridine-3-carboxamide] | 8.8
Cc1cc(F)c(-c2nnn(C3CC3)n2)cc1NC(=O)c1cnn2ccc(-c3cn(C[C@H](O)C(C)(C)O)nc3C3CC3)cc12 [Example 258, (S)-5-(3-cyclopropyl-1-(2,3-dihydroxy-3-methylbutyl)-1H-pyrazol-4-yl)-N-(5-(2-cyclopropyl-2H-tetrazol-5-yl)-4-fluoro-2-methylphenyl)pyrazolo[1,5-a]pyridine-3-carboxamide] | 0.4
Cc1cc(C)c(-c2nnn(CC34COC(C3)C4)n2)cc1NC(=O)c1cnn2ccccc12 [Example 20, N-(5-(2-((2-oxabicyclo[2.1.1]hexan-4-yl)methyl)-2H-tetrazol-5-yl)-2,4-dimethylphenyl)pyrazolo[1,5-a]pyridine-3-carboxamide] | 50.9
Cc1ccc(-c2nnn(CCOC3CCC3)n2)cc1NC(=O)c1cnn2ccccc12 [Example 12, N-(5-(2-(2-cyclobutoxyethyl)-2H-tetrazol-5-yl)-2-methylphenyl)pyrazolo[1,5-a]pyridine-3-carboxamide] | 2.4
Cc1ccc(-c2nnn(C3CN(S(=O)(=O)C4CC4)C3)n2)cc1NC(=O)c1cnn2ccccc12 [Example 179, N-(5-(2-(1-(cyclopropylsulfonyl)azetidin-3-yl)-2H-tetrazol-5-yl)-2-methylphenyl)pyrazolo[1,5-a]pyridine-3-carboxamide] | 4.9
Cc1nn(C[C@@H](C)O)cc1-c1ccn2ncc(C(=O)Nc3cc(-c4nnn(C5CC5)n4)c(F)cc3Cl)c2c1 [Example 281, (R)—N-(2-chloro-5-(2-cyclopropyl-2H-tetrazol-5-yl)-4-fluorophenyl)-5-(1-(2-hydroxypropyl)-3-methyl-1H-pyrazol-4-yl)pyrazolo[1,5-a]pyridine-3-carboxamide] | 0.4
CCOC(=O)N1CC(n2nnc(-c3ccc(C)c(NC(=O)c4cnn5ccc(N6CCN(C)CC6)cc45)c3)n2)C1 [Example 76, ethyl 3-(5-(4-methyl-3-(5-(4-methylpiperazin-1-yl)pyrazolo[1,5-a]pyridine-3-carboxamido)phenyl)-2H-tetrazol-2-yl)azetidine-1-carboxylate] | 55.6
Cc1nn([C@@H](C)[C@H](C)O)cc1-c1ccn2ncc(C(=O)Nc3cc(-c4nnn(C5CC5)n4)c(F)cc3Cl)c2c1 (single isomer, unassigned) [Example 288, N-(2-chloro-5-(2-cyclopropyl-2H-tetrazol-5-yl)-4-fluorophenyl)-5-(1-((2S,3S)-3-hydroxybutan-2-yl)-3-methyl-1H-pyrazol-4-yl)pyrazolo[1,5-a]pyridine-3-carboxamide or N-(2-chloro-5-(2-cyclopropyl-2H-tetrazol-5-yl)-4-fluorophenyl)-5-(1-((2R,3R)-3-hydroxybutan-2-yl)-3-methyl-1H-pyrazol-4-yl)pyrazolo[1,5-a]pyridine-3-carboxamide] | 0.4
CCn1nnc(-c2ccc(C)c(NC(=O)c3cnn4ccccc34)c2)n1 [Example 14, N-(5-(2-ethyl-2H-tetrazol-5-yl)-2-methylphenyl)pyrazolo[1,5-a]pyridine-3-carboxamide] | 28.6
Cc1ccc(-c2nnn(C)n2)cc1NC(=O)c1cnn2ccc(-c3cn(CCO)nc3C)cc12 [Example 228, 5-(1-(2-hydroxyethyl)-3-methyl-1H-pyrazol-4-yl)-N-(2-methyl-5-(2-methyl-2H-tetrazol-5-yl)phenyl)pyrazolo[1,5-a]pyridine-3-carboxamide] | 1.5
O=C(Nc1cc(-c2nnn(CC3CC3)n2)ccc1Cl)c1cnn2ccccc12 [Example 15, N-(2-chloro-5-(2-(cyclopropylmethyl)-2H-tetrazol-5-yl)phenyl)pyrazolo[1,5-a]pyridine-3-carboxamide] | 4.2
COCCNc1ccn2ncc(C(=O)Nc3cc(-c4nnn(C5CC5)n4)ccc3C)c2c1 [Example 88, N-(5-(2-cyclopropyl-2H-tetrazol-5-yl)-2-methylphenyl)-5-((2-methoxyethyl)amino)pyrazolo[1,5-a]pyridine-3-carboxamide] | 3.2
Cc1nn([C@H](C)[C@@H](C)O)cc1-c1ccn2ncc(C(=O)Nc3cc(-c4nnn(C5CC5)n4)c(F)cc3Cl)c2c1 (single isomer, unassigned) [Example 287, N-(2-chloro-5-(2-cyclopropyl-2H-tetrazol-5-yl)-4-fluorophenyl)-5-(1-((2R,3R)-3-hydroxybutan-2-yl)-3-methyl-1H-pyrazol-4-yl)pyrazolo[1,5-a]pyridine-3-carboxamide or N-(2-chloro-5-(2-cyclopropyl-2H-tetrazol-5-yl)-4-fluorophenyl)-5-(1-((2S,3S)-3-hydroxybutan-2-yl)-3-methyl-1H-pyrazol-4-yl)pyrazolo[1,5-a]pyridine-3-carboxamide] | 0.9
Cn1nnc(-c2ccc(Cl)c(NC(=O)c3cnn4ccc(-c5cnn(CCO)c5)cc34)c2)n1 [Example 218, N-(2-chloro-5-(2-methyl-2H-tetrazol-5-yl)phenyl)-5-(1-(2-hydroxyethyl)-1H-pyrazol-4-yl)pyrazolo[1,5-a]pyridine-3-carboxamide] | 5.2
Cc1ccc(-c2nnn(C3CN(S(=O)(=O)CC4CCC4)C3)n2)cc1NC(=O)c1cnn2ccccc12 [Example 180, N-(5-(2-(1-((cyclobutylmethyl)sulfonyl)azetidin-3-yl)-2H-tetrazol-5-yl)-2-methylphenyl)pyrazolo[1,5-a]pyridine-3-carboxamide] | 13.4
Cc1ccc(-c2nnn(C3CC(F)(F)C3)n2)cc1NC(=O)c1cnn2ccc(N3CC[C@@](C)(O)C3)cc12 (single isomer, unassigned) [Example 86, (S)—N-(5-(2-(3,3-difluorocyclobutyl)-2H-tetrazol-5-yl)-2-methylphenyl)-5-(3-hydroxy-3-methylpyrrolidin-1-yl)pyrazolo[1,5-a]pyridine-3-carboxamide or (R)—N-(5-(2-(3,3-difluorocyclobutyl)-2H-tetrazol-5-yl)-2-methylphenyl)-5-(3-hydroxy-3-methylpyrrolidin-1-yl)pyrazolo[1,5-a]pyridine-3-carboxamide] | 8.6
Cc1ccc(-n2nnc(C3CC3F)n2)cc1NC(=O)c1cnn2ccc(-c3cnn(CC(C)(C)O)c3)cc12 (centres unmarked) [Example 222, N-(5-(5-(2-fluorocyclopropyl)-2H-tetrazol-2-yl)-2-methylphenyl)-5-(1-(2-hydroxy-2-methylpropyl)-1H-pyrazol-4-yl)pyrazolo[1,5-a]pyridine-3-carboxamide] | 2.7
